Each structure is given as a SMILES string. Where “and” joins values, the source holds several entries; their conditions need not be identical. Equal entries are not always repeated.

The target in one assay is DYRK1A (Homo sapiens, UniProt Q13627). The experiment in a line: DYRK1A binding assay (DiscoverX KINOMEscan). Conditions: eleven serial three fold dilutions, highest concentration 60 μM. How it is done:
Compounds were tested for DYRK1A binding activity at the commercial kinase profiling service DiscoverX. DiscoverX uses proprietary KINOMEscan® Assay (Fabian et al., “A Small Molecule-kinase Interaction Map for Clinical Kinase Inhibitors,” Nat. Biotechnol. 23(3):329-336 (2005), which is hereby incorporated by reference in its entirety). Compounds were screened for DYRK1A activity at a single concentration of 3 μM in duplicates. Similarly, the dissociation constant Kd of the hit compounds from the initial screening was determined at DiscoverX using their proprietary KINOMEscan® Assay. Kd values are determined using eleven serial three fold dilutions with the highest concentration of 60 μM.

In a further assay the target is T1, DYRK1/DYRK1A (Homo sapiens, UniProt Q13627).
T1 construct: purchased Reaction Biology Corp. (assay service)
Put plainly: DYRK1/DYRK1A IC50 assay (Reaction Biology Corp.). Format: biochemical. Conditions: DYRK1/DYRK1A assay from Reaction Biology Corp.; NI: No inhibition.

For `O=c1[nH]c2ccc(-c3ccc(NCc4ccc(F)cc4)nn3)cc2[nH]1` [Compound 16a, 5-(6-((4-Fluorobenzyl)amino)pyridazin-3-yl)-1H-benzo[d]imidazol-2 (3H)-one], at DYRK1A, the Kd (in general, a measure of binding affinity in units of concentration) is 7000 nM.
Regarding `O=c1[nH]c2ccc(-c3cnc(NCc4ccc(F)cc4)nc3)cc2[nH]1` [Compound 16b, 5-(2-((4-Fluorobenzyl)amino)pyrimidin-5-yl)-1H-benzo[d]imidazol-2(3H)-one], the equilibrium dissociation constant (Kd) on DYRK1A is 73 nM and 82 nM and 140 nM.
On the same count and under the same terms, the same measure for `O=c1[nH]c2ccc(-c3cnc(NCc4ccccc4)nc3)cc2[nH]1` [Compound 16c]: 50 nM and 95 nM and 80 nM and 60 nM; for `Cn1c(=O)[nH]c2ccc(-c3cnc(NCc4ccccc4)nc3)cc21` [Compound 17c, 6-(2-(Benzylamino)pyrimidin-5-yl)-1-methyl-1H-benzo[d]imidazol-2(3H)-one]: 59 nM.
On the same count and under the same terms, with `Cn1c(=O)[nH]c2ccc(-c3cnc(NCc4ccc(F)cc4)nc3)cc21` [Compound 17d, 6-(2-((4-Fluorobenzyl)amino)pyrimidin-5-yl)-1-methyl-1H-benzo[d]imidazol-2 (3H)-one] the figure was 90 nM.
For `c1ccc(CNc2ncc(-c3ccc4[nH]cnc4c3)cn2)cc1` [Compound 17i, 5-(1H-Benzo[d]imidazol-5-yl)-N-benzylpyrimidin-2-amine], at DYRK1A, the affinity, expressed as Kd, was 2000 nM.
The same measure, in the same setting: with `Fc1ccc(CNc2ncc(-c3ccc4[nH]cnc4c3)cn2)cc1` [Compound 17j, 5-(1H-Benzo[d]imidazol-5-yl)-N-(4-fluorobenzyl)pyrimidin-2-amine] the figure was 2300 nM; with `O=c1[nH]c2ccc(-c3cnc(NCc4ccccc4)cn3)cc2[nH]1` [Compound 18c, 5-(5-(Benzylamino)pyrazin-2-yl)-1H-benzo[d]imidazol-2(3H)-one], 170 nM; with `O=c1[nH]c2ccc(-c3cnc(NCc4ccc(F)cc4)cn3)cc2[nH]1` [Compound 18d, 5-(5-((4-Fluorobenzyl)amino)pyrazin-2-yl)-1H-benzo[d]imidazol-2 (3H)-one], 260 nM.
On to `O=c1[nH]c2ccc(-c3cncc(NCc4ccccc4)n3)cc2[nH]1` [Compound 18m, 5-(6-(Benzylamino)pyrazin-2-yl)-1H-benzo[d]imidazol-2(3H)-one], for which, at DYRK1/DYRK1A, the IC50 (as a rule, the concentration needed to halve the response being measured) is 1.13 nM.
On DYRK1A, `O=c1[nH]c2ccc(-c3cnc(NCc4ccccc4F)nc3)cc2[nH]1` [Compound 29a, 5-(2-((2-Fluorobenzyl)amino)pyrimidin-5-yl)-1H-benzo[d]imidazol-2(3H)-one] had a Kd of 69 nM.
Still for that read-out and setting: with `O=c1[nH]c2ccc(-c3cnc(NCc4cccc(F)c4)nc3)cc2[nH]1` [Compound 29b, 5-(2-((3-Fluorobenzyl)amino)pyrimidin-5-yl)-1H-benzo[d]imidazol-2(3H)-one] the figure was 91 nM; with `O=c1[nH]c2ccc(-c3cnc(NCc4ccccc4Cl)nc3)cc2[nH]1` [Compound 29c, 5-(2-((2-Chlorobenzyl)amino)pyrimidin-5-yl)-1H-benzo[d]imidazol-2(3H)-one], 250 nM; with `O=c1[nH]c2ccc(-c3cnc(NCc4cccc(Cl)c4)nc3)cc2[nH]1` [Compound 29d, 5-(2-((3-Chlorobenzyl)amino)pyrimidin-5-yl)-1H-benzo[d]imidazol-2(3H)-one], 280 nM.
The same measure, in the same setting: the same measure for `O=c1[nH]c2ccc(-c3cnc(NCc4ccc(Cl)cc4)nc3)cc2[nH]1` [Compound 29e, 5-(2-((4-Chlorobenzyl)amino)pyrimidin-5-yl)-1H-benzo[d]imidazol-2(3H)-one]: 180 nM; for `N#Cc1cccc(CNc2ncc(-c3ccc4[nH]c(=O)[nH]c4c3)cn2)c1` [Compound 29f, 3-(((5-(2-Oxo-2,3-dihydro-1H-benzo[d]imidazol-5-yl)pyrimidin-2-yl)amino)methyl)benzonitrile]: 49 nM.
On the same count and under the same terms, the same measure for `N#Cc1ccc(CNc2ncc(-c3ccc4[nH]c(=O)[nH]c4c3)cn2)cc1` [Compound 29g, 4-(((5-(2-Oxo-2,3-dihydro-1H-benzo[d]imidazol-5-yl)pyrimidin-2-yl)amino)methyl)benzonnrile]: 120 nM.
Regarding `O=c1[nH]c2ccc(-c3cnc(NCc4ccc(-c5ccccc5)cc4)nc3)cc2[nH]1` [Compound 29h, 5-(2-(([1,1′-Biphenyl]-4-ylmethyl)amino)pyrimidin-5-yl)-1H-benzo[d]imidazol-2(3H)-one], the Kd on DYRK1A is 1400 nM.
Still for that read-out and setting: the same measure for `CC(Nc1ncc(-c2ccc3[nH]c(=O)[nH]c3c2)cn1)c1ccccc1` (stereo not drawn) [Compound 29j, 5-(2-((1-Phenylethyl)amino)pyrimidin-5-yl)-1H-benzo[d]imidazol-2(3H)-one]: 360 nM; for `O=c1[nH]c2ccc(-c3cnc(NCCc4ccccc4)nc3)cc2[nH]1` [Compound 29k, 5-(2-(Phenethylamino)pyrimidin-5-yl)-1H-benzo[d]imidazol-2(3H)-one]: 200 nM.
On DYRK1/DYRK1A, `O=c1[nH]c2ccc(-c3cnc(NCCCc4ccccc4)nc3)cc2[nH]1` [Compound 29l, 5-(2-((3-Phenylpropyl)amino)pyrimidin-5-yl)-1H-benzo[d]imidazol-2(3H)-one] registered an IC50 of 34 nM.
As for `O=c1[nH]c2ccc(-c3cnc(NCc4cccnc4)nc3)cc2[nH]1` [Compound 30b, 5-(2-((Pyridin-3-ylmethyl)amino)pyrimidin-5-yl)-1H-benzo[d]imidazol-2(3H)-one], binding on DYRK1A was put at a Kd of 190 nM.
`O=c1[nH]c2ccc(-c3cnc(NCc4ccncc4)nc3)cc2[nH]1` [Compound 30c, 5-(2-((Pyridin-4-ylmethyl)amino)pyrimidin-5-yl)-1H-benzo[d]imidazol-2 (3H)-one] yielded a Kd at DYRK1A of 130 nM.
Still for that read-out and setting: the same measure for `O=c1[nH]c2ccc(-c3cnc(NCc4cccc5ccccc45)nc3)cc2[nH]1` [Compound 30d, 5-(2-((Naphthalen-1-ylmethyl)amino)pyrimidin-5-yl)-1H-benzo[d]imidazol-2 (3H)-one]: 920 nM; for `O=c1[nH]c2ccc(-c3cnc(NCc4ccc5ccccc5c4)nc3)cc2[nH]1` [Compound 30e, 5-(2-((Naphthalen-2-ylmethyl)amino)pyrimidin-5-yl)-1H-benzo[d]imidazol-2(3H)-one]: 7100 nM; for `NC(=O)c1cccc(CNc2ncc(-c3ccc4[nH]c(=O)[nH]c4c3)cn2)c1` [Compound 32a, 3-(((5-(2-Oxo-2,3-dihydro-1H-benzo[d]imidazol-5-yl)pyrimidin-2-yl)amino)methyl)benzamide]: 130 nM.
Still for that read-out and setting: with `NC(=O)c1ccc(CNc2ncc(-c3ccc4[nH]c(=O)[nH]c4c3)cn2)cc1` [Compound 32b, 4-(((5-(2-Oxo-2,3-dihydro-1H-benzo[d]imidazo1-5-yl)pyrimidin-2-yl)amino)methyl)benzamide] the figure was 46 nM.
`O=c1[nH]c2ccc(-c3cnc(Nc4ccccc4F)nc3)cc2[nH]1` [Compound 48a, 5-(2-((2-Fluorophenyl)amino)pyrimidin-5-yl)-1H-benzo[d]imidazol-2(3H)-one]: half-maximal inhibition at DYRK1/DYRK1A (IC50) required 78 nM.
On the same count and under the same terms, with `O=c1[nH]c2ccc(-c3cnc(Nc4cccc(F)c4)nc3)cc2[nH]1` [Compound 48b, 5-(2-((3-Fluorophenyl)amino)pyrimidin-5-yl)-1H-benzo[d]imidazol-2(3H)-one] the figure was 47.7 nM.
With `O=c1[nH]c2ccc(-c3cnc(Nc4ccc(F)cc4)nc3)cc2[nH]1` [Compound 48c, 5-(2-((4-Fluorophenyl)amino)pyrimidin-5-yl)-1H-benzo[d]imidazol-2(3H)-one], at DYRK1/DYRK1A, half-maximal inhibition (IC50) was put at 58 nM.
The same measure, in the same setting: the same measure for `O=c1[nH]c2ccc(-c3cnc(Nc4ccccc4Cl)nc3)cc2[nH]1` [Compound 48d, 5-(2-((2-Chlorophenyl)amino)pyrimidin-5-yl)-1H-benzo[d]imidazol-2 (3H)-one]: 59 nM; for `O=c1[nH]c2ccc(-c3cnc(Nc4cccc(Cl)c4)nc3)cc2[nH]1` [Compound 48e, 5-(2-((3-Chlorophenyl)amino)pyrimidin-5-yl)-1H-benzo[d]imidazol-2 (3H)-one]: 54.9 nM; for `O=c1[nH]c2ccc(-c3cnc(Nc4ccc(Cl)cc4)nc3)cc2[nH]1` [Compound 48f, 5-(2-((4-Chlorophenyl)amino)pyrimidin-5yl)-1H-benzo[d]imidazol-2 (3H)-one]: 90.6 nM.
The same measure, in the same setting: the same measure for `COc1ccccc1Nc1ncc(-c2ccc3[nH]c(=O)[nH]c3c2)cn1` [Compound 48g, 5-(2-((2-Methoxyphenyl)amino)pyrimidin-5-yl)-1H-benzo[d]imidazol-2(3H)-one]: 497 nM; for `COc1cccc(Nc2ncc(-c3ccc4[nH]c(=O)[nH]c4c3)cn2)c1` [Compound 48h, 5-(2-((3-Methoxyphenyl)amino)pyrimidin-5-yl)-1H-benzo[d]imidazol-2(3H)-one]: 23.5 nM; for `COc1ccc(Nc2ncc(-c3ccc4[nH]c(=O)[nH]c4c3)cn2)cc1` [Compound 48i, 5-(2-((4-Methoxyphenyl)amino)pyrimidin-5-yl)-1H-benzo[d]imidazol-2(3H)-one]: 30.1 nM.
As for `O=c1[nH]c2ccc(-c3cnc(NCc4ccco4)nc3)cc2[nH]1` [Compound 51a, 5-(2-((Furan-2-ylmethyl)amino)pyrimidin-5-yl)-1H-benzo[d]imidazol-2(3H)-one], it took 73.2 nM to reach half-maximal inhibition on DYRK1/DYRK1A (IC50).
For `O=c1[nH]c2ccc(-c3cnc(NCc4cccs4)nc3)cc2[nH]1` [Compound 51b, 5-(2-((Thiophen-2-ylmethyl)amino)pyrimidin-5-yl)-1H-benzo[d]imidazol-2(3H)-one], the half-maximal inhibitory concentration (IC50) at DYRK1/DYRK1A was 32.7 nM.
The same measure, in the same setting: with `O=c1[nH]c2ccc(-c3cnc(NCc4ncc[nH]4)nc3)cc2[nH]1` [Compound 51c, 5-(2-(((1H-Imidazol-2-yl)methyl)amino)pyrimidin-5-yl)-1H-benzo[d]imidazol-2(3H)-one] the figure was 960 nM.

These data come from patent US20220064146A1, “KINASE INHIBITOR COMPOUNDS AND COMPOSITIONS AND METHODS OF USE” (ICAHN SCHOOL OF MEDICINE AT MOUNT SINAI, priority 2018, published 2022).
